Source: patent publication US20120009320A1, “COMPOSITIONS COMPRISING MONATIN AND CALCIUM” (priority 2009, published 2012)
Structures can show the parent of a compound that is named as a salt.

Experiments:
panelists [1] = assay: Sensory panel sweetness matching against sucrose references (SEV) in milk and water media, Example 1; assay type: in vivo, human; settings: for sweetness enhancement of water/calcium solution over monatin in water alone: c. 120 mg calcium/100 ml as Gluconal CAL
Experimental: As used herein, “sucrose equivalency value”, or SEV, is a measure of sweetness. The SEV is the concentration (% w/v) of a sucrose solution that gives a degree of sweetness that is perceived to be the same degree of sweetness as that of a test sample. For purposes of this disclosure, the SEV of an aqueous or dairy solution containing monatin is determined through comparison of the monatin-containing solution to a series of sucrose containing solutions prepared in the same medium (see Example 1).
Monatin compositions were prepared by adding monatin to each of the solutions below at 20 ppm and 40 ppm. Sucrose reference compositions were also prepared. • Milk (0% fat) • Milk (0% fat) adjusted to pH 4.6 with lactic acid • Milk (2% fat) • Milk (3.6% fat) • Water • Water, adjusted to pH 4.6 with lactic acid • Water containing c. 120 mg calcium/100 ml (Ca^2+ added as Gluconal CAL® soluble salt) • Water containing 4.5% lactose • Water containing c. 120 mg calcium/100 mL plus 4.5% lactose • Water containing 3% milk protein isolate (Davisco BiPro)
Panelists (8-10) were presented with a range (2-12%; w/v) of sucrose reference solutions prepared in each of the mediums listed above as well as two monatin test solutions at 20 ppm and 40 ppm prepared in the same manner. The panelists were instructed to taste the test sample and then to identify the reference sample that matched the perceived sweetness of the test sample. If the sweetness of the test sample was judged to fall between that of two references, panelists were asked to estimate sweetness to one decimal point. Panelists evaluated each sample in duplicate. All results for each test sample were averaged.

panelists [2] = assay: Sweetness matching of monatin/salt combinations in water pH 7 and citric/citrate buffer pH 3, Examples 3-5; assay type: in vivo, human; settings: Monatin only (40 ppm), no salt
Experimental: Test and reference solutions were prepared in the same medium. The SEVs of monatin/salt combinations at the appropriate concentrations were measured and compared to the SEV of monatin measured in the absence of any salts. […] Monatin-containing test samples and sucrose references were prepared in the same medium. Based on the previous observations that the sweetness of monatin relative to sucrose is sweeter at acidic pH, this study was carried out under two pH conditions; specifically, in water at pH 7-7.5 and in a citric/citrate buffer at pH 3.0. 2R,4R-Monatin mono potassium salt was used as an illustrative form of monatin for the experiments below. All monatin solutions were prepared ‘as is’, i.e., a 40 ppm monatin solution is 40 ppm of monatin mono potassium salt. A sweetness matching procedure was adopted. […] Each test sample was either monatin control or monatin plus designated salt at the stated concentration. Panelists were instructed to taste the test sample and then to identify the reference sample that matched the perceived sweetness of the test sample. If the sweetness of the test sample was judged to fall between that of two references, panelists were instructed to estimate sweetness to one decimal point. Panelists evaluated each sample in duplicate. Results for each test sample were averaged. […] The five samples were tested at pH 7 (water medium) and at pH 3 (citric/citrate buffer). […] The weight percent of calcium in the salt is different for each of the calcium salts. As such, the weight percent of the calcium salt in each sample is calculated in order to determine how much salt is needed to deliver 1200 ppm of calcium cations. […] The weight percent of the other calcium salts is similarly calculated based on the molar weight percent of calcium in the calcium salt. […] The samples were created at pH 3 and pH 7. The impact of other metal ions, specifically potassium and magnesium, (i.e. […] These ions were tested in the form and concentrations found in cow's milk.

NC(CC(O)(Cc1c[nH]c2ccccc12)C(=O)O)C(=O)O (stereo not drawn) [R,R-Monatin, 2R,4R-Monatin mono potassium salt]
decrease in sweetness of water solution having 4.5% lactose compared to water solution only containing monatin (panelists [1]; 20 ppm monatin): 22% | sweetness enhancement of 0% fat milk at pH 4.6 over 0% fat milk at pH 6.4 (panelists [1]; 20 ppm monatin): 13% | SEV (panelists [1]; 20 ppm monatin, Milk (0% fat), pH 6.4): 5.3 %; w/v | SEV (panelists [1]; 20 ppm monatin, Milk (0% fat; yogurt + milk), pH 4.6): 6.0 %; w/v | SEV (panelists [1]; 20 ppm monatin, Milk (2% fat), pH 6.4): 5.6 %; w/v | SEV (panelists [1]; 20 ppm monatin, Milk (3.6% fat), pH 6.4): 5.2 %; w/v | SEV (panelists [1]; 20 ppm monatin, Water + 120 mg/100 mL calcium (Gluconal CAL), pH 7.6): 6.4 %; w/v | SEV (panelists [1]; 20 ppm monatin, Water + 3% whey protein isolate, pH 7.8): 5.2 %; w/v | SEV (panelists [1]; 20 ppm monatin, Water + 4.5% lactose, pH 7.8): 4.0 %; w/v | SEV (panelists [1]; 20 ppm monatin, Water + calcium + lactose, pH 7.8): 5.6 %; w/v | SEV (panelists [1]; 20 ppm monatin, Water + lactic acid, pH 4.6): 6.0 %; w/v | SEV (panelists [1]; 20 ppm monatin, Water, pH 7.8): 5.1 %; w/v | sweetness enhancement of water/calcium solution over monatin in water alone (panelists [1]; 20 ppm monatin): 25% | decrease in sweetness of water solution having 4.5% lactose compared to water solution only containing monatin (panelists [1]; 40 ppm monatin): 18% | sweetness enhancement of 0% fat milk at pH 4.6 over 0% fat milk at pH 6.4 (panelists [1]; 40 ppm monatin): 16% | SEV (panelists [1]; 40 ppm monatin, Milk (0% fat), pH 6.4): 8.5 %; w/v | SEV (panelists [1]; 40 ppm monatin, Milk (0% fat; yogurt + milk), pH 4.6): 9.9 %; w/v | SEV (panelists [1]; 40 ppm monatin, Milk (2% fat), pH 6.4): 8.7 %; w/v | SEV (panelists [1]; 40 ppm monatin, Milk (3.6% fat), pH 6.4): 8.3 %; w/v | SEV (panelists [1]; 40 ppm monatin, Water + 120 mg/100 mL calcium (Gluconal CAL), pH 7.6): 9.0 %; w/v | SEV (panelists [1]; 40 ppm monatin, Water + 3% whey protein isolate, pH 7.8): 7.6 %; w/v | SEV (panelists [1]; 40 ppm monatin, Water + 4.5% lactose, pH 7.8): 6.3 %; w/v | SEV (panelists [1]; 40 ppm monatin, Water + calcium + lactose, pH 7.8): 8.0 %; w/v | SEV (panelists [1]; 40 ppm monatin, Water + lactic acid, pH 4.6): 7.9 %; w/v | SEV (panelists [1]; 40 ppm monatin, Water, pH 7.8): 7.7 %; w/v | sweetness enhancement of water/calcium solution over monatin in water alone (panelists [1]; 40 ppm monatin): 17% | impact of milk fat on relative sweetness values of monatin solutions prepared from milk (panelists [1]; milk 0%, 2%, 3.6% fat): essentially unaffected | Sucrose Equivalency Value (panelists [2]; pH 3.0 citric/citrate buffer): 8.6% | Sucrose Equivalency Value (panelists [2]; pH 7.0 water): 8.4%
